We go through eleven molecules from patent US20250163054A1, “SUBSTITUTED BICYCLIC HETEROARYL COMPOUNDS USEFUL AS INHIBITORS OF TLR9” (Bristol-Myers Squibb Company, priority 2022, published 2025).

One may read the IC50 as the concentration that gives 50% inhibition.

Common to all, as to assay type: cell-based
Experiment [1] addresses T1, human TLR9 (Homo sapiens, UniProt Q9NR96).
T1 construct: host or cells: HEK-Blue cells (HEK293-derived reporter line)
T1 sequence (Q9NR96 26-1032): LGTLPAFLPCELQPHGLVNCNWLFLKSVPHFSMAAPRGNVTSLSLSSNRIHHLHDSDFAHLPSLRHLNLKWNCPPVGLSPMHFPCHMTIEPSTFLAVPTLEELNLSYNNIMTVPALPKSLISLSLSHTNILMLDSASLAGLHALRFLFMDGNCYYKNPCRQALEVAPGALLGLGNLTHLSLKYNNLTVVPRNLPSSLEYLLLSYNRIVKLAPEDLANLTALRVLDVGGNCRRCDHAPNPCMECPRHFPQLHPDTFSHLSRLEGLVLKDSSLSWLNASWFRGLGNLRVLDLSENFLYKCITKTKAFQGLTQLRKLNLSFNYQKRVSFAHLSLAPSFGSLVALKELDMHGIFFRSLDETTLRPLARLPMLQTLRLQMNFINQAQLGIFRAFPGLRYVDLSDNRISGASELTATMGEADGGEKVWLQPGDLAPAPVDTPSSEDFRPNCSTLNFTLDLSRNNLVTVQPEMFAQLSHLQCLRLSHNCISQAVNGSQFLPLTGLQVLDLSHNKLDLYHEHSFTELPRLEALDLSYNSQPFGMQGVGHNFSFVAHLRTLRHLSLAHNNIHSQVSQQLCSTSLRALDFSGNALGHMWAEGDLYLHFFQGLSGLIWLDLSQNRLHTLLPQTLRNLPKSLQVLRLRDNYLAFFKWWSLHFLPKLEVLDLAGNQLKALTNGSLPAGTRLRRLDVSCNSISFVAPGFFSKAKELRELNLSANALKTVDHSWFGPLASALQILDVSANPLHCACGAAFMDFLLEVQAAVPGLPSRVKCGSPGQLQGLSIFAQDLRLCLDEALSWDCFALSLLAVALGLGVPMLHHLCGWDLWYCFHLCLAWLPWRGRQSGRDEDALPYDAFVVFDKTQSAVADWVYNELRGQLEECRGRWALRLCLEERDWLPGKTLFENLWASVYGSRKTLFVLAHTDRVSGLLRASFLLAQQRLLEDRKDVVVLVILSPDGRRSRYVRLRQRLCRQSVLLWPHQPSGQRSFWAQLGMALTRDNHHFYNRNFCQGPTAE
Description: TLR7/8/9 Inhibition Reporter Assays (TLR9). To be noted: HEK-Blue cells overexpressing human TLR9, SEAP reporter, stimulated with TLR9 ligand ODN2006. A digest of the protocol:
(§1)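 HEK-Blue cells overexpressing human TLR7, TLR8 or TLR9 with NF-κB/AP-1-driven SEAP reporter, pre-treated 60 min with compound ([…]). Stimulated with […] (TLR7), […] (TLR8) or ODN2006 200 nM (TLR9), then 22 h at 37° C; SEAP measured, % inhibition relative to agonist-plus-DMSO and known-inhibitor wells.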

The target of experiment [2] is T2, human TLR7 (Homo sapiens, UniProt Q9NYK1).
T2 construct: host or cells: HEK-Blue cells (HEK293-derived reporter line)
T2 sequence (Q9NYK1 27-1049): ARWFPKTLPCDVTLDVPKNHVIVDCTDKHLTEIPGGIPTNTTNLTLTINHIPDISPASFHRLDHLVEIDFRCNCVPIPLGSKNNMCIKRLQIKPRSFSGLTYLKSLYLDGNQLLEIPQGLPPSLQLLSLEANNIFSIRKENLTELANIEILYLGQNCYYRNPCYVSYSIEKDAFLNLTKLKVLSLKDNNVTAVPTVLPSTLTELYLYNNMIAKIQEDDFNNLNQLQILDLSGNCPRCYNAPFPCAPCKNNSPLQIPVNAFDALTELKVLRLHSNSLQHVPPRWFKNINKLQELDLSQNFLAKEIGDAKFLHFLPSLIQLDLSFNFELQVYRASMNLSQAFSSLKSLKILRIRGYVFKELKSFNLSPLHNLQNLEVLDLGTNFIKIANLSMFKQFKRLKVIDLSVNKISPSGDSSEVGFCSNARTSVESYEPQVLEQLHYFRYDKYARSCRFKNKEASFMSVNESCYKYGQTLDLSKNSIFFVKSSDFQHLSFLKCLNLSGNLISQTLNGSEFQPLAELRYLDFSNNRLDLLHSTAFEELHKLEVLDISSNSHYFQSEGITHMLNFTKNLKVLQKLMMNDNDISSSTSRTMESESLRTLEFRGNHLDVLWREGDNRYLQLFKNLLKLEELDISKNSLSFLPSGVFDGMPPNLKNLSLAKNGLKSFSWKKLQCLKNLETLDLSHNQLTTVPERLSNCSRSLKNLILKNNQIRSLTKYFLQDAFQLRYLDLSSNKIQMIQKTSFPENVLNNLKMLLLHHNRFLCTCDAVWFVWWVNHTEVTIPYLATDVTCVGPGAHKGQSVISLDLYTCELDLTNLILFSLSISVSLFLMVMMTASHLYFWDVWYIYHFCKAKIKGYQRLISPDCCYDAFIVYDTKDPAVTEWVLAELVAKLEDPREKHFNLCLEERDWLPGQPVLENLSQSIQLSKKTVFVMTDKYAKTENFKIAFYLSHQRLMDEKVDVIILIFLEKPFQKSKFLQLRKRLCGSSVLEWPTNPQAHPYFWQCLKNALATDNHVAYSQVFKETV
The experiment can be described thus: TLR7/8/9 Inhibition Reporter Assays (TLR7). To be noted: HEK-Blue cells overexpressing human TLR7, SEAP reporter, stimulated with TLR7 ligand gardiquimod. An outline of the steps: as §1
(In a reporter assay the amount or activity of a reporter protein is the signal.)

The target in experiment [3] is T3, human TLR8 (Homo sapiens, UniProt Q9NR97).
T3 construct: host or cells: HEK-Blue cells (HEK293-derived reporter line)
T3 sequence (Q9NR97 27-1041): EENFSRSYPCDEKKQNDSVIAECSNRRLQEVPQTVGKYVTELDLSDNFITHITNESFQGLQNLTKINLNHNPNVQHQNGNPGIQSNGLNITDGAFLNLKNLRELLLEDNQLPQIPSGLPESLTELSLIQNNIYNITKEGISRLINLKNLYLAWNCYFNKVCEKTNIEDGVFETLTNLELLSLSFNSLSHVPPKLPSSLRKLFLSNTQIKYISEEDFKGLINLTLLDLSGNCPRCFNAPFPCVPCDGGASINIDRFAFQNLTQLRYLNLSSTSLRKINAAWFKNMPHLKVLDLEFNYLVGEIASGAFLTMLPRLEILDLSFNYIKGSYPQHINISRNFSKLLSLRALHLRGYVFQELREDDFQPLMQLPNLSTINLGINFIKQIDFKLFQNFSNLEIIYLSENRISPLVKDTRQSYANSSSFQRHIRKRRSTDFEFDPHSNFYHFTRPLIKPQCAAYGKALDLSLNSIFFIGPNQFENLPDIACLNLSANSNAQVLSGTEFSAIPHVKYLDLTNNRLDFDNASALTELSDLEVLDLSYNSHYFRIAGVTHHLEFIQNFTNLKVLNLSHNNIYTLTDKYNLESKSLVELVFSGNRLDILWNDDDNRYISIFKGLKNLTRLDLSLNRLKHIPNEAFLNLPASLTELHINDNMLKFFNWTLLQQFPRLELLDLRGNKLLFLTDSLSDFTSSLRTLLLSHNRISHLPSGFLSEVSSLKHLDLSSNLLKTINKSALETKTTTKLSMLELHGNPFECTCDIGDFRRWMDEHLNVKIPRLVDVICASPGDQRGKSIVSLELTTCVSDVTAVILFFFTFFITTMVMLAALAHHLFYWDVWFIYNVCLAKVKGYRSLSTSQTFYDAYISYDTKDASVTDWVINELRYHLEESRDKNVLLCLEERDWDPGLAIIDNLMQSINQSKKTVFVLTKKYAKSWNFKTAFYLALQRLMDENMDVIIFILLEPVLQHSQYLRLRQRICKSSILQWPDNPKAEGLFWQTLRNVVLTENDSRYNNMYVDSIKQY
Description: TLR7/8/9 Inhibition Reporter Assays (TLR8). To be noted: HEK-Blue cells overexpressing human TLR8, SEAP reporter, stimulated with TLR8 ligand R848. A digest of the protocol:
as §1

Take `Cc1nc(-c2ccc(N3CC4(CN(CC(C)(C)O)C4)C3)cc2)cc2c1nc(-c1ccc(S(C)(=O)=O)cc1)n2C` [Example 97, 1-(6-(4-(1,4-dimethyl-2-(4-(methylsulfonyl)phenyl)-1H-imidazo[4,5-c]pyridin-6-yl)phenyl)-2,6-diazaspiro[3.3]heptan-2-yl)-2-methylpropan-2-ol]: the concentration for half-maximal inhibition (IC50) came to 78 nM in experiment [1], 6200 nM in experiment [2] and 6800 nM in experiment [3].
With `COCCN1CC2(CCN(c3ccc(-c4cc5c(cn4)nc(-c4ccc(S(C)(=O)=O)cc4)n5C)cc3)CC2)C1` [Example 105, 6-(4-(2-(2-methoxyethyl)-2,7-diazaspiro[3.5]nonan-7-yl)phenyl)-1-methyl-2-(4-(methylsulfonyl)phenyl)-1H-imidazo[4,5-c]pyridine], the concentration for half-maximal inhibition (IC50) was 600 nM in experiment [1], 4500 nM in experiment [2] and 2200 nM in experiment [3].
As for `COc1ccc(-c2nc3c(C)nc(-c4ccc(N5CCC6(CC5)CN(C5CCC5)C6)cc4)cc3n2C)cc1OC` [Example 80, 6-(4-(2-cyclobutyl-2,7-diazaspiro[3.5]nonan-7-yl)phenyl)-2-(3,4-dimethoxyphenyl)-1,4-dimethyl-1H-imidazo[4,5-c]pyridine], the IC50 in experiment [1] is 61 nM; in experiment [2] it was 590 nM; in experiment [3], 15000 nM.
For `COc1ccc(-c2nc3cnc(-c4ccc(N5CC6(CN(CC(C)C)C6)C5)cc4)cc3n2C2CC2)cc1OC` [Example 85, 1-cyclopropyl-2-(3,4-dimethoxyphenyl)-6-(4-(6-isobutyl-2,6-diazaspiro[3.3]heptan-2-yl)phenyl)-1H-imidazo[4,5-c]pyridine] the same measures were 170 nM, 3200 nM and 2500 nM.
As to `CC(C)CN1CC2(CCN(c3ccc(-c4cc5c(cn4)nc(-c4ccc(S(C)(=O)=O)cc4)n5C)cc3)CC2)C1` [Example 96, 6-(4-(2-isobutyl-2,7-diazaspiro[3.5]nonan-7-yl)phenyl)-1-methyl-2-(4-(methylsulfonyl)phenyl)-1H-imidazo[4,5-c]pyridine], the IC50 in experiment [1] came to 240 nM; in experiment [2] it was 3000 nM; in experiment [3], 990 nM.
For `COc1ccc(-c2nc3cnc(-c4ccc(N5C[C@@H]6CN(C(C)C)C[C@@H]6C5)cc4)cc3n2C2CC2)cc1OC` [Example 81, 1-cyclopropyl-2-(3,4-dimethoxyphenyl)-6-(4-((3aR,6aS)-5-isopropylhexahydropyrrolo[3,4-c]pyrrol-2(1H)-yl)phenyl)-1H-imidazo[4,5-c]pyridine] the same measures were 120 nM, 3000 nM and 3300 nM.
For `Cn1c(-c2ccc(S(C)(=O)=O)cc2)nc2cnc(-c3ccc(N4CCC5(CC4)CN(C4COC4)C5)cc3)cc21` [Example 108, 1-methyl-2-(4-(methylsulfonyl)phenyl)-6-(4-(2-(oxetan-3-yl)-2,7-diazaspiro[3.5]nonan-7-yl)phenyl)-1H-imidazo[4,5-c]pyridine] the same measures were 740 nM, 29000 nM and > 25000 nM.
For `Cc1nc(-c2ccc(CN3CCC(N4CCOCC4)CC3)cc2)cc2c1nc(-c1ccc(S(C)(=O)=O)cc1)n2C1CC1` [Example 48, 4-(1-(4-(1-cyclopropyl-4-methyl-2-(4-(methylsulfonyl)phenyl)-1H-imidazo[4,5-c]pyridin-6-yl)benzyl)piperidin-4-yl) morpholine] the same measures were 270 nM, 3800 nM and 1700 nM.
For `COc1ccc(-c2nc3c(C)nc(-c4ccc(N5C[C@H]6CN(CC(C)(C)O)C[C@H]6C5)cc4)cc3n2C)cc1OC` [Example 94, 1-((3aR,6aS)-5-(4-(2-(3,4-dimethoxyphenyl)-1,4-dimethyl-1H-imidazo[4,5-c]pyridin-6-yl)phenyl)hexahydropyrrolo[3,4-c]pyrrol-2(1H)-yl)-2-methylpropan-2-ol], the IC50 came out at 250 nM in experiment [1], 2600 nM in experiment [2] and 44000 nM in experiment [3].
Consider `COc1cc(-c2nc3c(C)nc(-c4ccc(N5CCN(C(C)C)CC5)cc4)cc3n2C)cn2ncnc12` [Example 9, 6-(6-(4-(4-isopropylpiperazin-1-yl)phenyl)-1,4-dimethyl-1H-imidazo[4,5-c]pyridin-2-yl)-8-methoxy-[1,2,4]triazolo[1,5-a]pyridine], for which the concentration for half-maximal inhibition (IC50) in experiment [1] is 220 nM; in experiment [2], 470 nM; in experiment [3], 9100 nM.
For `Cc1nc(-c2ccc(N3CCC(N4CCCC4)CC3)c(F)c2)cc2c1nc(-c1ccc(S(C)(=O)=O)cc1)n2C` [Example 42, 6-(3-fluoro-4-(4-(pyrrolidin-1-yl)piperidin-1-yl)phenyl)-1,4-dimethyl-2-(4-(methylsulfonyl)phenyl)-1H-imidazo[4,5-c]pyridine] the same measures were 440 nM, 2400 nM and > 50000 nM.
